The term MIC denotes the lowest concentration found to suppress growth. A low value points to inhibition by little substance.

Our source for the MIC values is ChEMBL document CHEMBL2203277, “Synthesis and antibacterial activity of novel modified 5-O-desosamine ketolides” (2012).

SMILES strings stand for the structures. ≈ marks a conversion by molar mass, not a printed value. Some results are limits rather than exact numbers.

Holding throughout (assay type): functional
For assay [1], the system named is Streptococcus pyogenes. In words: Antibacterial activity against erythromycin-resistant Streptococcus pyogenes 09Q149 by broth microdilution method. (In broth dilution the organism is exposed to a series of concentrations in liquid medium.)
In assay [2] the test system is Streptococcus pyogenes. Kind of assay: Antibacterial activity against erythromycin-sensitive Streptococcus pyogenes 09U070 by broth microdilution method.
Assay [3] relates to Streptococcus pneumoniae. In words: Antibacterial activity against erythromycin-resistant Streptococcus pneumoniae 09E427 by broth microdilution method.
Assay [4] concerns Streptococcus pneumoniae. In words: Antibacterial activity against erythromycin-resistant Streptococcus pneumoniae 09D016 by broth microdilution method.
Assay [5] concerns Streptococcus pneumoniae. Kind of assay: Antibacterial activity against erythromycin-sensitive Streptococcus pneumoniae 09H071 by broth microdilution method.
Assay [6] relates to Streptococcus pneumoniae. Kind of assay: Antibacterial activity against erythromycin-sensitive Streptococcus pneumoniae 09H065 by broth microdilution method.
Assay [7] relates to Streptococcus pneumoniae. Kind of assay: Antibacterial activity against erythromycin-sensitive Streptococcus pneumoniae ATCC 49619 by broth microdilution method.
Assay [8] concerns Staphylococcus epidermidis. In words: Antibacterial activity against methicillin-resistant Staphylococcus epidermidis 09M124 by broth microdilution method.
For assay [9], the system named is Staphylococcus epidermidis. In words: Antibacterial activity against methicillin-resistant Staphylococcus epidermidis 09R476 by broth microdilution method.
In assay [10] the test system is Staphylococcus epidermidis. Kind of assay: Antibacterial activity against methicillin-sensitive Staphylococcus epidermidis 09G291 by broth microdilution method.
For assay [11], the system named is Staphylococcus epidermidis. Kind of assay: Antibacterial activity against methicillin-sensitive Staphylococcus epidermidis 09A011 by broth microdilution method.
Assay [12] has as its system Staphylococcus aureus. Kind of assay: Antibacterial activity against methicillin-resistant Staphylococcus aureus 09N120 by broth microdilution method.
For assay [13], the system named is Staphylococcus aureus. Kind of assay: Antibacterial activity against methicillin-resistant Staphylococcus aureus 09L075 by broth microdilution method.
For assay [14], the system named is Staphylococcus aureus. In words: Antibacterial activity against methicillin-sensitive Staphylococcus aureus 09U035 by broth microdilution method.
Assay [15] concerns Staphylococcus aureus. Kind of assay: Antibacterial activity against methicillin-sensitive Staphylococcus aureus 09O077 by broth microdilution method.
The test system of assay [16] is Staphylococcus aureus. In words: Antibacterial activity against methicillin-sensitive Staphylococcus aureus ATCC 29213 by broth microdilution method.

`CC[C@H]1OC(=O)[C@H](C)[C@@H](O[C@H]2C[C@@](C)(OC)[C@@H](O)[C@H](C)O2)[C@H](C)[C@@H](O[C@@H]2O[C@H](C)C[C@H](N(C)C)[C@H]2O)[C@](C)(O)C[C@@H](C)C(=O)[C@H](C)[C@@H](O)[C@]1(C)O` [ERYTHROMYCIN]: the MIC is above 256 µg/mL against Streptococcus pyogenes [1]; 0.031 µg/mL (≈ 0.0422 µM) in the assay with Streptococcus pyogenes [2]; above 256 µg/mL with Streptococcus pneumoniae [3]; above 256 µg/mL against Streptococcus pneumoniae [4]; 0.062 µg/mL (≈ 0.0845 µM) with Streptococcus pneumoniae [5]; 0.062 µg/mL (≈ 0.0845 µM) against Streptococcus pneumoniae [6]. In addition, the MIC in the assay with Streptococcus pneumoniae [7] is 0.062 µg/mL (≈ 0.0845 µM); in assay [8], 128 µg/mL (≈ 174 µM); in assay [9] it was 0.125 µg/mL (≈ 0.17 µM); in [10], above 256 µg/mL; in [11], 0.062 µg/mL (≈ 0.0845 µM); against Staphylococcus aureus [12], above 256 µg/mL. The MIC in the assay on Staphylococcus aureus [13] was 0.5 µg/mL (≈ 0.681 µM); against Staphylococcus aureus [14], above 256 µg/mL; with Staphylococcus aureus [15], above 256 µg/mL; in the assay on Staphylococcus aureus [16] it was 0.25 µg/mL (≈ 0.341 µM).

Take `C=CCO[C@H]1[C@H](N(C)C)[C@@H](O)[C@H](O[C@@H]2[C@@H](C)C(=O)[C@@H](C)C(=O)O[C@H](CC)[C@@]3(C)OC(=O)O[C@H]3[C@@H](C)C(=O)[C@H](C)C[C@@]2(C)OC)O[C@@H]1C`: the MIC in the assay on Streptococcus pyogenes [1] is above 8 µg/mL; against Streptococcus pyogenes [2], above 8 µg/mL; against Streptococcus pneumoniae [3], above 8 µg/mL; with Streptococcus pneumoniae [4], above 8 µg/mL; against Streptococcus pneumoniae [5], 1 µg/mL (≈ 1.49 µM); against Streptococcus pneumoniae [6], 0.5 µg/mL (≈ 0.746 µM). For the same molecule, the MIC is 0.5 µg/mL (≈ 0.746 µM) in the assay with Streptococcus pneumoniae [7]; 4 µg/mL (≈ 5.97 µM) in [8]; 4 µg/mL (≈ 5.97 µM) in assay [9]; above 8 µg/mL in assay [10]; 2 µg/mL (≈ 2.99 µM) in assay [11]; above 8 µg/mL in the assay on Staphylococcus aureus [12]. The MIC was 8 µg/mL (≈ 11.9 µM) in the assay with Staphylococcus aureus [13], above 8 µg/mL in the assay with Staphylococcus aureus [14], above 8 µg/mL against Staphylococcus aureus [15] and 4 µg/mL (≈ 5.97 µM) with Staphylococcus aureus [16].

For the molecule `CC[C@H]1OC(=O)[C@H](C)[C@@H](O[C@H]2C[C@@](C)(OC)[C@@H](O)[C@H](C)O2)[C@H](C)[C@@H](O[C@@H]2O[C@H](C)C[C@H](N(C)C)[C@H]2O)[C@](C)(OC)C[C@@H](C)C(=O)[C@H](C)[C@@H](O)[C@]1(C)O` [CLARITHROMYCIN], the MIC with Streptococcus pyogenes [1] is above 32 µg/mL; in the assay with Streptococcus pyogenes [2], 0.031 µg/mL (≈ 0.0414 µM); with Streptococcus pneumoniae [3], above 32 µg/mL; against Streptococcus pneumoniae [4], above 32 µg/mL; in the assay on Streptococcus pneumoniae [5], 0.062 µg/mL (≈ 0.0829 µM); with Streptococcus pneumoniae [6] it was 0.062 µg/mL (≈ 0.0829 µM). In addition, the MIC with Streptococcus pneumoniae [7] is 0.125 µg/mL (≈ 0.167 µM); in assay [8] it was 32 µg/mL (≈ 42.8 µM); in assay [9], 0.25 µg/mL (≈ 0.334 µM); in assay [10], above 32 µg/mL; in [11], 0.125 µg/mL (≈ 0.167 µM); against Staphylococcus aureus [12], above 32 µg/mL. The MIC was 2 µg/mL (≈ 2.67 µM) against Staphylococcus aureus [13], above 32 µg/mL in the assay with Staphylococcus aureus [14], above 32 µg/mL against Staphylococcus aureus [15] and 0.25 µg/mL (≈ 0.334 µM) in the assay on Staphylococcus aureus [16].

Consider `CC[C@H]1OC(=O)[C@H](C)C(=O)[C@H](C)[C@@H](O[C@@H]2O[C@H](C)[C@@H](OCc3ccccc3)[C@H](N(C)C)[C@H]2O)[C@](C)(OC)C[C@@H](C)C(=O)[C@H](C)[C@@H]2OC(=O)O[C@]12C`, for which the MIC in the assay with Streptococcus pyogenes [1] is above 32 µg/mL; in the assay on Streptococcus pyogenes [2], above 32 µg/mL; against Streptococcus pneumoniae [3] it was above 32 µg/mL; in the assay on Streptococcus pneumoniae [4] it was above 32 µg/mL; with Streptococcus pneumoniae [5], 4 µg/mL (≈ 5.56 µM); in the assay with Streptococcus pneumoniae [6], 4 µg/mL (≈ 5.56 µM). Besides, the MIC is 4 µg/mL (≈ 5.56 µM) with Streptococcus pneumoniae [7]; 32 µg/mL (≈ 44.5 µM) in assay [8]; 32 µg/mL (≈ 44.5 µM) in [9]; above 32 µg/mL in [10]; 16 µg/mL (≈ 22.2 µM) in [11]; above 32 µg/mL with Staphylococcus aureus [12]. The MIC in the assay with Staphylococcus aureus [13] was above 32 µg/mL; in the assay with Staphylococcus aureus [14], above 32 µg/mL; in the assay with Staphylococcus aureus [15] it was above 32 µg/mL; in the assay with Staphylococcus aureus [16] it was 32 µg/mL (≈ 44.5 µM).

Take `CC[C@H]1OC(=O)[C@H](C)C(=O)[C@H](C)[C@@H](O[C@@H]2O[C@H](C)[C@@H](O)[C@H](N(C)C)[C@H]2O)[C@](C)(OC)C[C@@H](C)C(=O)[C@H](C)[C@@H]2OC(=O)O[C@]12C`: the MIC against Streptococcus pyogenes [1] was above 32 µg/mL; with Streptococcus pyogenes [2], at most 0.031 µg/mL; with Streptococcus pneumoniae [3], above 32 µg/mL; in the assay with Streptococcus pneumoniae [4] it was above 32 µg/mL; in the assay with Streptococcus pneumoniae [5], at most 0.031 µg/mL; with Streptococcus pneumoniae [6], 0.062 µg/mL (≈ 0.0985 µM). In addition, the MIC is 0.062 µg/mL (≈ 0.0985 µM) against Streptococcus pneumoniae [7]; 0.25 µg/mL (≈ 0.397 µM) in [8]; 0.25 µg/mL (≈ 0.397 µM) in assay [9]; above 32 µg/mL in [10]; 0.125 µg/mL (≈ 0.198 µM) in assay [11]; above 32 µg/mL against Staphylococcus aureus [12]. In addition, the MIC was 0.125 µg/mL (≈ 0.198 µM) in the assay with Staphylococcus aureus [13], above 32 µg/mL in the assay with Staphylococcus aureus [14], above 32 µg/mL in the assay on Staphylococcus aureus [15] and 0.125 µg/mL (≈ 0.198 µM) against Staphylococcus aureus [16].

With `CC[C@H]1OC(=O)[C@H](C)C(=O)[C@H](C)[C@@H](O[C@@H]2O[C@H](C)C[C@H](N(C)C)[C@H]2O)[C@](C)(OC)C[C@@H](C)C(=O)[C@H](C)[C@H]2N(CCCCn3cnc(-c4cccnc4)c3)C(=O)O[C@]12C` [TELITHROMYCIN], the MIC against Streptococcus pyogenes [1] is 2 µg/mL (≈ 2.46 µM); against Streptococcus pyogenes [2] it was 0.016 µg/mL (≈ 0.0197 µM); with Streptococcus pneumoniae [3] it was 0.25 µg/mL (≈ 0.308 µM); against Streptococcus pneumoniae [4], 0.125 µg/mL (≈ 0.154 µM); in the assay with Streptococcus pneumoniae [5] it was 0.031 µg/mL (≈ 0.0382 µM); in the assay on Streptococcus pneumoniae [6], 0.031 µg/mL (≈ 0.0382 µM). The MIC against Streptococcus pneumoniae [7] is 0.031 µg/mL (≈ 0.0382 µM); in [8], 0.25 µg/mL (≈ 0.308 µM); in assay [9], 0.125 µg/mL (≈ 0.154 µM); in assay [10], above 64 µg/mL; in assay [11], 0.125 µg/mL (≈ 0.154 µM); in the assay on Staphylococcus aureus [12] it was above 64 µg/mL. The MIC against Staphylococcus aureus [13] was 0.125 µg/mL (≈ 0.154 µM); against Staphylococcus aureus [14], above 64 µg/mL; against Staphylococcus aureus [15], above 64 µg/mL; against Staphylococcus aureus [16], 0.125 µg/mL (≈ 0.154 µM).
